According to patent US9416127B2, “Triazole carboxamides and uses thereof” (Hoffmann-La Roche Inc., priority 2012, dated 2016):
Counter-ions that a name gives are not always drawn.

Assays:
[1] = target: mouse TAAR1 (Mus musculus (Mouse), UniProt Q923Y8); test: Radioligand binding assay on mouse TAAR1; details: mouse TAAR1, HEK-293 membranes; first value of mouse/rat cell
Procedure: (§1) Construction of TAAR Expression Plasmids and Stably Transfected Cell Lines
(§2) For the construction of expression plasmids the coding sequences of human, rat and mouse TAAR 1 were amplified from genomic DNA essentially as described by Lindemann et al.. The Expand High Fidelity PCR System (Roche Diagnostics) was used with 1.5 mM Mg^2+ and purified PCR products were cloned into pCR2.1-TOPO cloning vector (Invitrogen) following the instructions of the manufacturer. PCR products were subcloned into the pIRESneo2 vector (BD Clontech, Palo Alto, Calif.), and expression vectors were sequence verified before introduction in cell lines.
(§3) HEK293 cells (ATCC # CRL-1573) were cultured essentially as described by Lindemann et al. (2005). For the generation of stably transfected cell lines HEK293 cells were transfected with the pIRESneo2 expression plasmids containing the TAAR coding sequences (described above) with Lipofectamine 2000 (Invitrogen) according to the instructions of the manufacturer, and 24 hrs post transfection the culture medium was supplemented with 1 mg/ml G418 (Sigma, Buchs, Switzerland). After a culture period of about 10 d clones were isolated, expanded and tested for responsiveness to trace amines (all compounds purchased from Sigma) with the cAMP Biotrak Enzyme immunoassay (EIA) System (Amersham) following the non-acetylation EIA procedure provided by the manufacturer.
Radioligand Binding Assay on Mouse TAAR1
(§4) Membrane Preparation and Radioligand Binding.
(§5) HEK-293 cells stably expressing mouse TAAR1 were maintained at 37° C. and 5% CO2 in DMEM high glucose medium, containing fetal calf serum (10%, heat inactivated for 30 min at 56° C.), penicillin/streptomycin (1%), and 375 μg/ml geneticin (Gibco). Cells were released from culture flasks using trypsin/EDTA, harvested, washed twice with ice-cold PBS (without Ca^2+ and Mg^2+), pelleted at 1'000 rpm for 5 min at 4° C., frozen and stored at −80° C. Frozen pellets were suspended in 20 ml HEPES-NaOH (20 mM, pH 7.4) containing 10 mM EDTA and homogenized with a Polytron (PT 6000, Kinematica) at 14'000 rpm for 20 s. The homogenate was centrifuged at 48'000×g for 30 min at 4° C. Subsequently, the supernatant was removed and discarded, and the pellet resuspended in 20 ml HEPES-NaOH (20 mM, pH 7.4) containing 0.1 mM EDTA using the Polytron (20 s at 14'000 rpm). This procedure was repeated and the final pellet resuspended in HEPES-NaOH containing 0.1 mM EDTA and homogenized using the Polytron. Typically, aliquots of 2 ml membrane portions were stored at −80° C. With each new membrane batch the dissociation constant (Kd) was determined via a saturation curve. […] Nonspecific binding was defined as the amount of ^3[H]—(S)-4-[(ethyl-phenyl-amino)-methyl]-4,5-dihydro-oxazol-2-ylamine bound in the presence of 10 μM unlabeled ligand. All compounds were tested at a broad range of concentrations (10 pM to 10 μM) in duplicates. […] The 96 deep well plates were incubated for 1 hr at 4° C. Incubations were terminated by rapid filtration through Unifilter-96 plates (Packard Instrument Company) and glass filters GF/C (Perkin Elmer) presoaked for 1 hr in polyethylenimine (0.3%) and washed 3 times with 1 ml of cold binding buffer. After addition of 45 μl of Microscint 40 (PerkinElmer) the Unifilter-96 plate was sealed and after 1 hr the ratioactivity counted using a TopCount Microplate Scintillation Counter (Packard Instrument Company).

[2] = target: rat TAAR1 (Rattus norvegicus (Rat), UniProt Q923Y9); test: Radioligand binding assay on rat TAAR1; details: rat TAAR1, HEK-293 membranes; second value of mouse/rat cell
Procedure: as §1, §2, §3
Radioligand Binding Assay on Rat TAAR1
as §4
as §5, with “rat” for “mouse”, “[…]” for “pM”

Chain of mouse TAAR1 (Q923Y8 whole entry): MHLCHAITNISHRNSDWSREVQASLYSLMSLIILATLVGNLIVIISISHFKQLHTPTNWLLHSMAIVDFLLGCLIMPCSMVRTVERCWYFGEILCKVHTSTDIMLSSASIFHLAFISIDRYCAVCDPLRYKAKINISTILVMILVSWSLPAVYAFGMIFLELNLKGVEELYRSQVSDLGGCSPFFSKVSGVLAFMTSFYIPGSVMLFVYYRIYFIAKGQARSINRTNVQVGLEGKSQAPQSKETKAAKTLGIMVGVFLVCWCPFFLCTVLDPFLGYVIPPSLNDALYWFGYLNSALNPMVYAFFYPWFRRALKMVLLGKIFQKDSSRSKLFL
Chain of rat TAAR1 (Q923Y9 whole entry): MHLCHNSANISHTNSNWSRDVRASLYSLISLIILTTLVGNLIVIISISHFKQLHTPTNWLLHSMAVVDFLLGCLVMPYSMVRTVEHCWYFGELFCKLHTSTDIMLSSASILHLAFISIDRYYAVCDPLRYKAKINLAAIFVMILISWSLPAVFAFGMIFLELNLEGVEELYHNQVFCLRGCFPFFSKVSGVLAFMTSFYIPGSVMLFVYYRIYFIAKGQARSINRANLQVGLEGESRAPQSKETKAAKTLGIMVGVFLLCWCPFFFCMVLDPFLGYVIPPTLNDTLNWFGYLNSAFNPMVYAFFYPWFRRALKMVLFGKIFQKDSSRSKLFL

Compound	Ki [1] [µM]	Ki [2] [µM]
O=C(Nc1ccc(C2CCNC2)cc1)c1cn(-c2ccc(OC(F)F)cc2)nn1 (racemic) [Example 33, (RS)-1-(4-(Difluoromethoxy)phenyl)-N-(4-(pyrrolidin-3-yl)phenyl)-1H-1,2,3-triazole-4-carboxamide]	0.0049	0.0189
O=C(Nc1ccc(C2CCNC2)cc1)c1cnn(-c2ccccc2)n1 (racemic) [Example 34, (RS)-2-Phenyl-N-(4-(pyrrolidin-3-yl)phenyl)-2H-1,2,3-triazole-4-carboxamide]	0.0032	0.001
O=C(Nc1ccc(C2CCCNC2)cc1)c1cnn(-c2ccccc2)n1 (racemic) [Example 35, (RS)-2-Phenyl-N-(4-(piperidin-3-yl)phenyl)-2H-1,2,3-triazole-4-carboxamide]		0.0017
O=C(Nc1ccc([C@H]2CNCCO2)cc1)c1cnn(-c2ccccc2)n1 [Example 1, (S)—N-(4-(Morpholin-2-yl)phenyl)-2-phenyl-2H-1,2,3-triazole-4-carboxamide hydrochloride]	0.0012	0.0013
Cc1nn(-c2ccccc2)nc1C(=O)Nc1ccc([C@H]2CNCCO2)cc1 [Example 2, (S)-5-Methyl-N-(4-(morpholin-2-yl)phenyl)-2-phenyl-2H-1,2,3-triazole-4-carboxamide hydrochloride]	0.0015	0.0008
O=C(Nc1ccc([C@H]2CNCCO2)cc1)c1cnn(-c2ccc(Cl)cc2)n1 [Example 6, (S)-2-(4-Chlorophenyl)-N-(4-(morpholin-2-yl)phenyl)-2H-1,2,3-triazole-4-carboxamide hydrochloride]	0.0004	0.0002
Cc1nn(-c2ccccc2)nc1C(=O)Nc1ccc([C@@H]2CNCCO2)cc1 [Example 7, (R)-5-Methyl-N-(4-(morpholin-2-yl)phenyl)-2-phenyl-2H-1,2,3-triazole-4-carboxamide hydrochloride]	0.0027	0.0002
O=C(Nc1ccc([C@@H]2CNCCO2)cc1)c1cnn(-c2ccccc2)n1 [Example 8, (R)—N-(4-(Morpholin-2-yl)phenyl)-2-phenyl-2H-1,2,3-triazole-4-carboxamide hydrochloride]	0.0014	0.0008
O=C(Nc1ccc([C@H]2CNCCO2)cc1)c1cnn(-c2ccc(F)cc2)n1 [Example 9, (S)-2-(4-Fluorophenyl)-N-(4-(morpholin-2-yl)phenyl)-2H-1,2,3-triazole-4-carboxamide hydrochloride]	0.0004	0.0006
O=C(Nc1ccc([C@H]2CNCCO2)cc1)c1cnn(-c2ccc(C(F)(F)F)cc2)n1 [Example 10, (S)—N-(4-(Morpholin-2-yl)phenyl)-2-(4-(trifluoromethyl)phenyl)-2H-1,2,3-triazole-4-carboxamide hydrochloride]	0.0004	0.0002
O=C(Nc1ccc([C@H]2CNCCO2)cc1)c1cnn(-c2cccc(F)c2)n1 [Example 11, (S)-2-(3-Fluorophenyl)-N-(4-(morpholin-2-yl)phenyl)-2H-1,2,3-triazole-4-carboxamide hydrochloride]	0.0003	0.0004
O=C(Nc1ccc([C@H]2CNCCO2)cc1)c1cnn(-c2cccc(Cl)c2)n1 [Example 12, (S)-2-(3-Chlorophenyl)-N-(4-(morpholin-2-yl)phenyl)-2H-1,2,3-triazole-4-carboxamide hydrochloride]	0.0002	0.0002
O=C(Nc1ccc([C@H]2CNCCO2)cc1)c1cnn(-c2cccc(C(F)(F)F)c2)n1 [Example 13, (S)—N-(4-(Morpholin-2-yl)phenyl)-2-(3-(trifluoromethyl)phenyl)-2H-1,2,3-triazole-4-carboxamide hydrochloride]	0.0003	0.0006
O=C(Nc1ccc([C@H]2CNCCO2)cc1)c1cnn(-c2ccc(OC(F)(F)F)cc2)n1 [Example 15, (S)—N-(4-(Morpholin-2-yl)phenyl)-2-(4-(trifluoromethoxy)phenyl)-2H-1,2,3-triazole-4-carboxamide hydrochloride]	0.0002	0.0001
O=C(Nc1ccc([C@H]2CNCCO2)cc1)c1cnn(-c2ccc(OC(F)F)cc2)n1 [Example 16, (S)-2-(4-(Difluoromethoxy)phenyl)-N-(4-(morpholin-2-yl)phenyl)-2H-1,2,3-triazole-4-carboxamide hydrochloride]	0.0003	0.0002
Cc1ccc(-n2cc(C(=O)Nc3ccc([C@H]4CNCCO4)cc3)nn2)cc1 [Example 17, (S)—N-(4-(Morpholin-2-yl)phenyl)-1-p-tolyl-1H-1,2,3-triazole-4-carboxamide hydrochloride]	0.0013	0.0174
Cc1ccc(-n2ncc(C(=O)Nc3ccc([C@H]4CNCCO4)cc3)n2)cc1 [Example 18, (S)—N-(4-(Morpholin-2-yl)phenyl)-2-p-tolyl-2H-1,2,3-triazole-4-carboxamide hydrochloride]	0.0007	0.0016
COc1ccc(-n2cc(C(=O)Nc3ccc([C@H]4CNCCO4)cc3)nn2)cc1 [Example 19, (S)-1-(4-Methoxyphenyl)-N-(4-(morpholin-2-yl)phenyl)-1H-1,2,3-triazole-4-carboxamide hydrochloride]	0.0016	0.0388
COc1ccc(-n2ncc(C(=O)Nc3ccc([C@H]4CNCCO4)cc3)n2)cc1 [Example 20, (S)-2-(4-Methoxyphenyl)-N-(4-(morpholin-2-yl)phenyl)-2H-1,2,3-triazole-4-carboxamide hydrochloride]	0.0014	0.0019
CCOc1ccc(-n2cc(C(=O)Nc3ccc([C@H]4CNCCO4)cc3)nn2)cc1 [Example 21, (S)-1-(4-Ethoxyphenyl)-N-(4-(morpholin-2-yl)phenyl)-1H-1,2,3-triazole-4-carboxamide hydrochloride]	0.0018	0.0293
CCOc1ccc(-n2ncc(C(=O)Nc3ccc([C@H]4CNCCO4)cc3)n2)cc1 [Example 22, (S)-2-(4-Ethoxyphenyl)-N-(4-(morpholin-2-yl)phenyl)-2H-1,2,3-triazole-4-carboxamide hydrochloride]	0.0008	0.001
Cc1cccc(-n2ncc(C(=O)Nc3ccc([C@H]4CNCCO4)cc3)n2)c1 [Example 23, (S)—N-(4-(Morpholin-2-yl)phenyl)-2-m-tolyl-2H-1,2,3-triazole-4-carboxamide hydrochloride]	0.0011	0.0005
